# Assay results reported in the supplement of paper PMC11368000.
# Assays:
# Conditions in all cases: exposure time: 90 min
# 1309 [1] = donor line of iPSC-derived cardiomyocytes; experiment: POD (EC10) for decrease in total cell number (cytotoxicity) vs vehicle; higher = less potent (higher point of departure)
# Outline: (§1)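 Donor-specific cytotoxicity points of departure were derived from hierarchical Bayesian Hill fits to vehicle-normalised nuclear counts. The benchmark for these fits was a 10% decrease. The cells were human iPSC-derived cardiomyocytes from 16 donors, cultured 14 days in 384-well plates and exposed for 90 min at 37 °C to 0.1, 1, 10 and 100 µM (final, 0.5% DMSO). Following a Ca2+ flux read, they were stained for 15 min with Hoechst 33342 (2.2 µg/mL) and MitoTracker Orange, imaged at 10× on an ImageXpress Micro Confocal, and their nuclei counted per field in MetaXpress.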
# 1392 [2] = donor line of iPSC-derived cardiomyocytes; experiment: as above
# Outline: as §1
# 1516 [3] = donor line of iPSC-derived cardiomyocytes; experiment: as above
# Outline: as §1
# 30145 = donor line of iPSC-derived cardiomyocytes; experiment: as above
# Outline: as §1
# 30171 [4] = donor line of iPSC-derived cardiomyocytes; experiment: as above
# Outline: as §1
# 1083 = donor line of iPSC-derived cardiomyocytes; experiment: POD (EC05) for increase in beat frequency (positive chronotrope) vs vehicle; higher = less potent (higher point of departure)
# Outline: (§2)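 Ca2+ flux in human iPSC-derived cardiomyocytes from 16 donors was recorded on a FLIPR Tetra for 100 s before and after a 90 min exposure at 37 °C to 0.1, 1, 10 and 100 µM (final, 0.5% DMSO). Donor-specific points of departure came from hierarchical Bayesian Hill fits to vehicle-normalised beat frequency, decay-to-rise ratio or peak frequency. A 5% change served as threshold, except for peak frequency, where it was a 95% loss.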
# 1118 = donor line of iPSC-derived cardiomyocytes; experiment: as above
# Outline: as §2
# 11235 = donor line of iPSC-derived cardiomyocytes; experiment: as above
# Outline: as §2
# 1309 [5] = experiment: as above
# Outline: as §2
# 1368 = donor line of iPSC-derived cardiomyocytes; experiment: as above
# Outline: as §2
# 1392 [6] = experiment: as above
# Outline: as §2
# 1434 = donor line of iPSC-derived cardiomyocytes; experiment: as above
# Outline: as §2
# 1516 [7] = experiment: as above
# Outline: as §2
# 1518 = donor line of iPSC-derived cardiomyocytes; experiment: as above
# Outline: as §2
# 1531 = donor line of iPSC-derived cardiomyocytes; experiment: as above
# Outline: as §2
# 1535 = donor line of iPSC-derived cardiomyocytes; experiment: as above
# Outline: as §2
# 1565 = donor line of iPSC-derived cardiomyocytes; experiment: as above
# Outline: as §2
# 20032 = donor line of iPSC-derived cardiomyocytes; experiment: as above
# Outline: as §2
# 20084 = donor line of iPSC-derived cardiomyocytes; experiment: as above
# Outline: as §2
# 30171 [8] = experiment: as above
# Outline: as §2
Compound,POD vs vehicle 1309 [1] [µM],POD vs vehicle 1392 [2] [µM],POD vs vehicle 1516 [3] [µM],POD vs vehicle 30145 [µM],POD vs vehicle 30171 [4] [µM],POD vs vehicle 1083 [µM],POD vs vehicle 1118 [µM],POD vs vehicle 11235 [µM],POD vs vehicle 1309 [5] [µM],POD vs vehicle 1368 [µM],POD vs vehicle 1392 [6] [µM],POD vs vehicle 1434 [µM],POD vs vehicle 1516 [7] [µM],POD vs vehicle 1518 [µM],POD vs vehicle 1531 [µM],POD vs vehicle 1535 [µM],POD vs vehicle 1565 [µM],POD vs vehicle 20032 [µM],POD vs vehicle 20084 [µM],POD vs vehicle 30171 [8] [µM]
O=S(=O)(O)CCC(F)(F)C(F)(F)C(F)(F)C(F)(F)C(F)(F)C(F)(F)C(F)(F)C(F)(F)F [8:2 Fluorotelomer sulfonic acid],> 100,> 100,> 100,> 100,> 100,27.8,> 100,> 100,> 100,77.4,> 100,> 100,> 100,> 100,> 100,> 100,> 100,> 100,> 100,> 100
O=P(O)(O)CCC(F)(F)C(F)(F)C(F)(F)C(F)(F)C(F)(F)C(F)(F)C(F)(F)C(F)(F)F [((Perfluorooctyl)ethyl)phosphonic_acid],> 100,> 100,> 100,> 100,> 100,> 100,> 100,> 100,> 100,> 100,> 100,> 100,> 100,> 100,> 100,> 100,> 100,> 100,> 100,> 100
O=C(O)C(F)(F)C(F)(F)C(F)(F)C(F)(F)C(F)(F)C(F)(F)C(F)(F)C(F)(F)F [Perfluorononanoic_acid],> 100,> 100,> 100,> 100,> 100,> 100,> 100,> 100,> 100,> 100,> 100,> 100,> 100,> 100,> 100,> 100,> 100,> 100,> 100,> 100
N=C(N)C(F)(F)C(F)(F)C(F)(F)C(F)(F)C(F)(F)C(F)(F)C(F)(F)F [Perfluorooctanamidine],> 100,> 100,> 100,> 100,> 100,> 100,> 100,> 100,> 100,> 100,> 100,> 100,> 100,> 100,> 100,> 100,> 100,> 100,> 100,> 100
"O=C(O)C=C(C(F)(F)F)C(F)(F)F [3,3-Bis(trifluoromethyl)-2-propenoic_acid]",> 100,> 100,> 100,> 100,> 100,> 100,> 100,> 100,> 100,> 100,> 100,> 100,> 100,> 100,> 100,> 100,> 100,> 100,> 100,> 100
O=C(O)C(F)(F)C(F)(F)C(F)(F)C(F)(F)F [Perfluoropentanoic_acid],> 100,> 100,> 100,> 100,> 100,> 100,> 100,> 100,> 100,> 100,> 100,> 100,> 100,> 100,> 100,> 100,> 100,> 100,> 100,> 100
OCC(F)(F)C(F)(F)C(F)(F)F [Heptafluorobutanol],> 100,> 100,> 100,> 100,> 100,> 100,> 100,> 100,> 100,> 100,> 100,> 100,> 100,> 100,> 100,> 100,> 100,> 100,> 100,> 100
